# Read-outs that look alike come from different tables or passages of the source.
# Columns and labels:
# neutrophils [1] = system: neutrophils
# Procedure: (§1) Neutrophils were isolated from peripheral blood. 3.5 ml of heparinised blood was spread over M-PRM medium (Flow Laboratories) and centrifuged for 40 minutes at 400g at 20° C. […] The cells were adjusted to a concentration of 2×10^6 ml.
# Adhesion: 100 μl of neutrophil suspension were placed in the wells of a flat-bottomed culture dish, and incubated at 37° C. for 60 minutes. After washing off the non-adhesive cells, the adhered neutrophils were fixed with ethanol and stained with Romanovsky-Giemsa dye. After washing out the free dye, the cell-associated dye was dissolved in isopropanol, and the optical density (OD650) of the solution was determined using an "ELISA II" microprocessor (Boehringer). The number of adherent cells was calculated by reference to a standard curve.
# (§2) In the treated group GMDP was given per os on days -2 and -1 before the operation, and subcutaneously on days +1, +2 and +3 after the operation at a dose of 1-2 mg/day. The total dose of GMDP was […]. On day +5 after the operation neutrophil function was again assessed in all patients by the same parameters as specified above.
# neutrophils [2] = system: neutrophils; remark: listed apart in the source
# Procedure: as §1
# (§3) Chemiluminescence: Luminol-dependent chemiluminescence was measured on a 1251 Luminometer (LKB).
# (§4) For chemiluminescence, superoxide anion production, myeloperoxidase and acid phosphatase both the spontaneous and induced reactions were measured. Induction was performed by exposing the cells to opsonized zymosan (30 μl, 20 mg/ml) for 30 minutes at 37° C. before the assay.
# (§5) On day before treatment with GMDP (day -1) the neutrophil function of all patients was measured by the tests described above in Example 1. In the GMDP-treated group, GMDP was administered parenterally at a dose of 1-2 mg/day for five consecutive days. The total dose of GMDP was […].
# (§6) One day after the cessation of GMDP treatment (day +6), neutrophil function was again measured in all patients.
# TNFα = assay: Example 5: TNF production in whole blood culture; format: cell-based; conditions: human blood diluted 1:2, 6 hours at 37° C., TNFα capture ELISA; FIG. 3
# Procedure: Whole heparinized human blood was diluted 1:2 with RPMI and dispensed into 96-well microtitre plates. Individual wells were treated with saline, GMDP, MDP or LPS at the doses shown above. After incubating at 37° C. for 6 hours, the supernatants were assayed for TNFα by a standard capture ELISA method. […] This is a sensitive assay for measuring the effect of mediators on immune cell production of TNFα which is believed to be a primary mediator of inflammation, coagulopathy and death in sepsis and septic shock. It can be seen that GMDP is the least inflammatory mediator; the respective TNF inducing activities of these substances would […] correlate with their toxicities.
# neutrophils [3] = system: neutrophils; remark: listed apart in the source
# Procedure: as §1, §3, §4, §2
# neutrophils [4] = system: neutrophils; remark: listed apart in the source
# Procedure: as §1
# (§7) Myeloperoxidase: 100 μl of substrate mixture, consisting of 0.04% orthophenylene diamine (Sigma) and 0.014% hydrogen peroxide in phosphate citrate buffer (pH 5.0) was added to cells and incubated for 10 minutes before the reaction was stopped with 100 μl of 10% sulphuric acid. The optical density at 492 mu was measured with a Multiscan Titertek Plus (Flow Laboratories).
# as §4, §5, §6
# neutrophils [5] = system: neutrophils; remark: listed apart in the source
# Procedure: as §1
# Acid phosphatase: 50 μl of substrate mixture, consisting of 0.24% paranitrophenyl phosphate (Boehring) and 0.84% NaCl in a sodium citrate buffer (pH 5.5) were added to cells and incubated for 30 minutes at 30° C. before the reaction was by adding 100 μl of 0.2M NaOH. The optical density at 405 mu was measured with a Multiscan Titertek Plus (Flow Laboratories).
# as §4, §5, §6
# [6] = system: LPS-induced mortality in mice; assay: Example 3: LPS-induced mortality in mice; format: in vivo, BALB/c mice; conditions: i.p. twice daily 100 μg or molar equivalent per mouse for 9 days before 300 μg LPS; mortality 2 days after LPS; FIG. 1
# Procedure: 25 female BALB/c mice weighing 16-18 g each were divided into 5 groups, each group containing 5 animals. Each group of mice received twice-daily doses of saline, GMDP, GMDP-OBu, MDP or GMDP-A. The compounds were administered by intra-peritoneal injection in twice-daily doses of 100 μg or the molar equivalent per mouse during a 9-day period before the injection of 300 μg LPS per mouse. […] Thus GMDP and GMDP-A would be useful in the treatment and prevention of sepsis and septic shock, whereas MDP and GMDP-OBu would not.
# serum TNF = assay: Example 7: LPS induction of serum TNF; format: in vivo, BALB/c mice; conditions: C. parvum-primed mice, 100 μg (equimolar) IP, LPS 25 μg 18 hours later; FIG. 5
# Procedure: In this experiment, 4 compounds were tested and these are: MDP, GMDP-A, GMDP-OBu and GMDP. Saline was administered to control mice. BALB/c mice (6 mice/group) were injected intraperitoneally with 1.4 mg of dead C. parvum (0.2 ml of a 7 mg/ml suspension.). Mice were subsequently (2 weeks later) treated with saline, MDP (100 μg) or analogue (100 μg) in 0.5 ml saline IP. The dose of each `MDP` was adjusted so that animals received equimolar amounts. LPS (25 μg) was injected 18 hours after the injection of MDP/analogue and mice were subsequently sacrificed and bled out. TNF was determined by standard capture ELISA assay.
# neutrophils [7] = system: neutrophils; remark: listed apart in the source
# Procedure: as §1, §7, §4, §2
# mice = conditions: acute toxicity in mice; cited from earlier work
# [8] = opsonized zymosan, Day -1 (before treatment)
# [9] = opsonized zymosan, Day -1 to Day +6
# [10] = opsonized zymosan, Day -3 (before treatment)
# [11] = opsonized zymosan, Day -3 to Day +5
structure (smiles),measurement,setting,value
"CC(=O)NC1C(OC2C(CO)OC(O)C(NC(C)=O)C2OC(C)C(=O)NC(C)C(=O)NC(CCC(=O)O)C(N)=O)OC(CO)C(O)C1O [GMDP, N-acetyl-D-glucosaminyl-(β1-4)-N-acetylmuramyl-L-alanyl-D-isoglutamine]",Adhesion,neutrophils [1]; Day +5 after operation,47.9 ± 12.6 O.D. 650μ
same,Adhesion,neutrophils [1]; Day -3 (before treatment),39.8 ± 5.4 O.D. 650μ
same,Adhesion % Change,neutrophils [1]; Day -3 to Day +5,+20.4%
same,"Chemiluminescent, spontaneous",neutrophils [2]; Day +6,4.16 ± 0.14 mV
same,"Chemiluminescent, spontaneous",neutrophils [2]; Day -1 (before treatment),2.41 ± 0.14 mV
same,"Chemiluminescent, spontaneous % Change",neutrophils [2]; Day -1 to Day +6,+72.6%
same,"Chemiluminescent, induced","neutrophils [2]; opsonized zymosan, Day +6",21.3 ± 3.51 mV
same,"Chemiluminescent, induced",neutrophils [2]; [8],9.41 ± 2.1 mV
same,"Chemiluminescent, induced % Change",neutrophils [2]; [9],+126.4%
same,TNF production in whole blood culture,TNFα,poor inducer of TNF
same,"Chemiluminescence, spontaneous",neutrophils [3]; Day +5,3.37 ± 0.70 mV
same,"Chemiluminescence, spontaneous",neutrophils [3]; Day -3 (before treatment),1.82 ± 0.07 mV
same,"Chemiluminescence, spontaneous % Change",neutrophils [3]; Day -3 to Day +5,+85.2%
same,"Chemiluminescence, induced","neutrophils [3]; opsonized zymosan, Day +5",15.8 ± 4.2 mV
same,"Chemiluminescence, induced",neutrophils [3]; [10],11.3 ± 2.1 mV
same,"Chemiluminescence, induced % Change",neutrophils [3]; [11],+39.8%
same,"Myeloperoxidase, spontaneous",neutrophils [4]; Day +6,595.2 ± 48.3 O.D. 492μ
same,"Myeloperoxidase, spontaneous",neutrophils [4]; Day -1 (before treatment),504.5 ± 118 O.D. 492μ
same,"Myeloperoxidase, spontaneous % Change",neutrophils [4]; Day -1 to Day +6,+17.9%
same,"Myeloperoxidase, induced","neutrophils [4]; opsonized zymosan, Day +6",587.1 ± 96.3 O.D. 492μ
same,"Myeloperoxidase, induced",neutrophils [4]; [8],520.3 ± 60.1 O.D. 492μ
same,"Myeloperoxidase, induced % Change",neutrophils [4]; [9],+12.8%
same,"Acid phosphatase, spontaneous",neutrophils [5]; Day +6,251.3 ± 16.1 O.D. 405μ
same,"Acid phosphatase, spontaneous",neutrophils [5]; Day -1 (before treatment),119.4 ± 10.1 O.D. 405μ
same,"Acid phosphatase, spontaneous % Change",neutrophils [5]; Day -1 to Day +6,+110.5%
same,"Acid phosphatase, induced","neutrophils [5]; opsonized zymosan, Day +6",201 ± 14.3 O.D. 405μ
same,"Acid phosphatase, induced",neutrophils [5]; [8],104.4 ± 3.6 O.D. 405μ
same,"Acid phosphatase, induced % Change",neutrophils [5]; [9],+92.5%
same,effect on LPS-induced mortality,[6],antagonise the effect of LPS
same,effect on LPS induction of serum TNF,serum TNF,able to suppress the production of TNFα
same,"Myeloperoxidase, spontaneous",neutrophils [7]; Day +5,1075 ± 178.3 O.D. 492μ
same,"Myeloperoxidase, spontaneous",neutrophils [7]; Day -3 (before treatment),1145 ± 204.1 O.D. 492μ
same,"Myeloperoxidase, spontaneous % Change",neutrophils [7]; Day -3 to Day +5,-6.1%
same,"Myeloperoxidase, induced","neutrophils [7]; opsonized zymosan, Day +5",948.3 ± 205 O.D. 492μ
same,"Myeloperoxidase, induced",neutrophils [7]; [10],948.3 ± 205 O.D. 492μ
same,"Myeloperoxidase, induced % Change",neutrophils [7]; [11],+11.2%
same,LD50,mice,7 g/kg
